Assay results as given in patent US20230027198A1 (The Rockefeller University, priority 2019, published 2023).
pIC50: −log10 of the molar value.

Biological target: T1, ENL YEATS domain (6×HIS ENL YEATS Domain) binding to H3K9cr peptide (Homo sapiens, UniProt Q03111)
T1 construct: aa1-150; EpiCypher, 15-0069; purchased EpiCypher 15-0069
T1 sequence (Q03111 1-150): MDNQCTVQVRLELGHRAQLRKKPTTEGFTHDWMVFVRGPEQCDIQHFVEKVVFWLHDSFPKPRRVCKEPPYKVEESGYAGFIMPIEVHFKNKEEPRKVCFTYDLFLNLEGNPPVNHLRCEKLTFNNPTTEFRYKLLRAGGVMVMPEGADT
Assay: TR-FRET ENL Screening Assay, FRET Assay Protocol 1
Conditions: H3K9cr peptide (aa1-20)
Experimental: Compounds of the invention were dissolved in DMSO at a concentration of 3 mM with subsequent dilutions in assay buffer (50 mM HEPES PH7.0, 150 mM NaCl, 0.05% BSA, 0.2% Pluronic F-127) such that the assay contained 1% DMSO. […] Low control (LC) wells received 5 uL of assay buffer instead of ENL protein. […] Compound concentration response curves were performed in duplicate over the concentration range of 0.15 nM-30 uM. The response at each compound concentration minus the LC value was converted to percent inhibition of the vehicle control group response (HC-LC). The relationship between the % inhibition and the compound concentration was analyzed using a four parameter logistic equation to estimate lower and upper asymptotes, the compound concentration producing 50% inhibition (IC50 value) and the slope at the mid-point location.

SMILES	pIC50
Cc1nn(C2COC2)c2ccc(C(=O)Nc3cc4[nH]c(CN5CCC[C@@H]5C)cc4cn3)cc12 [Example 100]	6.67
C[C@H]1CCCN1Cc1cc2cnc(NC(=O)c3nc4cc(N)ccc4[nH]3)cc2[nH]1 [Example 64]	5.87
C[C@H]1CCCN1Cc1cc2ncc(NC(=O)c3ccc(-c4cc[nH]n4)cc3F)cc2[nH]1 [Example 41]	6.39
Cc1n[nH]c2cc(F)c(C(=O)Nc3cnc4cc(CN5CCC[C@@H]5C)[nH]c4c3)cc12 [Example 105, 6-fluoro-3-methyl-N-(2-[[(2S)-2-methylpyrrolidin-1-yl]methyl]-1H-pyrrolo[3,2-b]pyridin-6-yl)-1H-indazole-5-carboxamide]	6.57
C[C@H]1CCCN1Cc1cc2cnc(NC(=O)c3ccc4c(N)nn(C5CC5)c4c3)cc2[nH]1 [Example 84]	6.75
C[C@H]1CCCN1Cc1cc2cnc(NC(=O)c3nc4ccc(O)cc4[nH]3)cc2[nH]1 [Example 63]	5.71
C[C@H]1CCCN1Cc1cc2cnc(NC(=O)c3ccc4c(c3)OCC(=O)N4C)cc2[nH]1 [Example 17, 4-methyl-N-(2-[[(2S)-2-methylpyrrolidin-1-yl]methyl]-1H-pyrrolo[3,2-c]pyridin-6-yl)-3-oxo-2H-1,4-benzoxazine-7-carboxamide]	6.36
COCCn1cc(-c2ccc(C(=O)Nc3cc4[nH]c(CN5CCC[C@@H]5C)cc4cn3)nc2)cn1 [Example 71]	5.98
C[C@H]1CCCN1Cc1cc2cnc(NC(=O)c3ccc4onc(C5CC5)c4c3)cc2[nH]1 [Example 53, 3-cyclopropyl-N-(2-[[(2S)-2-methylpyrrolidin-1-yl]methyl]-1H-pyrrolo[3,2-c]pyridin-6-yl)-1,2-benzoxazole-5-carboxamide]	6.38
COc1cc(C(=O)Nc2cc3[nH]c(CN4CCC[C@@H]4C)cc3cn2)c(F)cc1-c1ccn[nH]1 [Example 44]	6.12
COCC1CCN(Cc2cc3cnc(NC(=O)c4ccc5c(cnn5C)c4)cc3[nH]2)C1 (stereo not shown) [Example 9]	6.55
Cc1nn(C2CS(=O)(=O)C2)c2ccc(C(=O)Nc3cc4[nH]c(CN5CCC[C@@H]5C)cc4cn3)cc12 [Example 101]	6.90
C[C@H]1CCCN1Cc1cc2cnc(NC(=O)c3ccc4c(c3)OCC(=O)N4)cc2[nH]1 [Example 16, N-(2-[[(2S)-2-methylpyrrolidin-1-yl]methyl]-1H-pyrrolo[3,2-c]pyridin-6-yl)-3-oxo-2,4-dihydro-1,4-benzoxazine-7-carboxamide]	5.93
Cc1n[nH]c2ccc(C(=O)Nc3cnc4cc(CN5CCC[C@@H]5C)[nH]c4c3)c(F)c12 [compound 106]	6.77
Cc1cnc(-c2ccc(C(=O)Nc3cc4[nH]c(CN5CCC[C@@H]5C)cc4cn3)c(F)c2)nc1 [Example 14, 2-fluoro-4-(5-methylpyrimidin-2-yl)-N-(2-[[(2S)-2-methylpyrrolidin-1-yl]methyl]-1H-pyrrolo[3,2-c]pyridin-6-yl)benzamide]	5.85
C[C@H]1CCCN1Cc1cc2cnc(NC(=O)c3ccc(-c4cc[nH]n4)cc3F)cc2[nH]1 [Example 43, 2-fluoro-N-(2-[[(2S)-2-methylpyrrolidin-1-yl]methyl]-1H-pyrrolo[3,2-c]pyridin-6-yl)-4-(1H-pyrazol-3-yl)benzamide]	6.16
Cc1n[nH]c2ccc(C(=O)Nc3cc4[nH]c(CN5CC6(C5)CC(F)(F)C6)cc4cn3)cc12 [Example 109]	6.82
C[C@H]1CCCN1Cc1cc2cnc(NC(=O)c3ccc(-c4cn(C)nn4)cc3F)cc2[nH]1 [Example 33]	6.38
C[C@H]1CCCN1Cc1cc2nnc(NC(=O)c3ccc4c(cnn4C)c3)cc2[nH]1 [compound 19]	6.70
COCCCCn1ncc2cc(C(=O)Nc3cc4[nH]c(CN5CCC[C@@H]5C)cc4cn3)ccc21 [compound 28]	6.38
COCCn1cc(-c2ccc(C(=O)Nc3cc4[nH]c(CN5CCC[C@@H]5C)cc4cn3)c(F)c2)cn1 [Example 72]	6.44
C[C@H]1CCCN1Cc1cc2cnc(NC(=O)c3ccc(-c4c[nH]cn4)cn3)cc2[nH]1 [Example 76]	5.80
C[C@H]1CCCN1Cc1cc2cnc(NC(=O)c3ncc(-c4cn[nH]c4)cc3F)cc2[nH]1 [Example 74]	5.96

The remaining lines, values ahead:

pIC50	SMILES
6.21	Cc1c[nH]c2cc(C(=O)Nc3cc4[nH]c(CN5CCC[C@@H]5C)cc4cn3)ccc12 [Example 68]
6.39	CC1C(=O)Nc2cc(C(=O)Nc3cc4[nH]c(CN5CCC[C@@H]5C)cc4cn3)ccc21 (stereo partly drawn) [Example 69, 3-methyl-N-(2-[[(2S)-2-methylpyrrolidin-1-yl]methyl]-1H-pyrrolo[3,2-c]pyridin-6-yl)-2-oxo-1,3-dihydroindole-6-carboxamide]
6.06	C[C@H]1CCCN1Cc1cc2cnc(NC(=O)c3ccc(-c4ccnn4C)cc3F)cc2[nH]1 [Example 31]
6.90	C[C@H]1CCCN1Cc1cc2cnc(NC(=O)c3ccc4c(c3)n(C)c(=O)n4C)cc2[nH]1 [Example 90]
6.86	C[C@H]1CCCN1Cc1cc2cnc(NC(=O)c3ccc4cnccc4c3)cc2[nH]1 [Example 65]
6.36	C[C@H]1CCCN1Cc1cc2cnc(NC(=O)c3ccc4c(c3)CNC(=O)C4)cc2[nH]1 [Example 26]
6.67	C[C@H]1CCCN1Cc1cc2cnc(NC(=O)c3ccc(-n4ccnc4)cc3)cc2[nH]1 [Example 54]
6.24	Cc1nc2ccc(C(=O)Nc3cc4[nH]c(CN5CCC[C@@H]5C)cc4cn3)cc2o1 [Example 4]
6.62	C[C@H]1CCCN1Cc1cc2cnc(NC(=O)c3ccc4c(cnn4-c4ccncc4)c3)cc2[nH]1 [Example 37, N-(2-[[(2S)-2-methylpyrrolidin-1-yl]methyl]-1H-pyrrolo[3,2-c]pyridin-6-yl)-1-(pyridin-4-yl) indazole-5-carboxamide]
6.15	C[C@H]1CCCN1Cc1cc2cnc(NC(=O)c3ccc(-n4cnnc4)cc3)cc2[nH]1 [Example 91]
5.66	C[C@@H]1CCN1Cc1cc2cnc(NC(=O)c3ccc4c(cnn4C)c3)cc2[nH]1 [Example 45, 1-methyl-N-(2-[[(2R)-2-methylazetidin-1-yl]methyl]-1H-pyrrolo[3,2-c]pyridin-6-yl)indazole-5-carboxamide]
6.31	C[C@H]1CCCN1Cc1cc2cnc(NC(=O)c3ccc4nccnc4c3)cc2[nH]1 [Example 38]
6.78	C[C@H]1CCCN1Cc1cc2cnc(NC(=O)c3ccc(-c4cnn(CCO)c4)cc3)cc2[nH]1 [Example 20, 4-[1-(2-hydroxyethyl)pyrazol-4-yl]-N-(2-[[(2S)-2-methylpyrrolidin-1-yl]methyl]-1H-pyrrolo[3,2-c]pyridin-6-yl)benzamide]
6.33	Cc1noc2ccc(C(=O)Nc3cc4[nH]c(CN5CCC[C@@H]5C)cc4cn3)cc12 [Example 2, 3-methyl-N-(2-[[(2S)-2-methylpyrrolidin-1-yl]methyl]-1H-pyrrolo[3,2-c]pyridin-6-yl)-1,2-benzoxazole-5-carboxamide]
6.12	CC(c1ccc(C(=O)Nc2cc3[nH]c(CN4CCC[C@@H]4C)cc3cn2)cc1)c1cccnc1 (stereo partly shown) [compound 30]
6.77	C[C@H]1CCCN1Cc1cc2cnc(NC(=O)c3ccc4c(N)n[nH]c4c3)cc2[nH]1 [Example 83]
5.75	CC(c1ccc(C(=O)Nc2cc3[nH]c(CN4CCC[C@@H]4C)cc3cn2)cc1)c1ccccn1 (stereo partly drawn) [Example 10, N-(2-[[(2S)-2-methylpyrrolidin-1-yl]methyl]-1H-pyrrolo[3,2-c]pyridin-6-yl)-4-[1-(pyridin-2-yl)ethyl]benzamide]
6.53	C[C@H]1CCCN1Cc1cc2cnc(NC(=O)c3ccc4nc(N)ccc4c3)cc2[nH]1 [Example 58]
6.43	C[C@H]1CCCN1Cc1cc2cnc(NC(=O)c3ccc4nnccc4c3)cc2[nH]1 [Example 39]
6.30	Cc1n[nH]cc1-c1ccc(C(=O)Nc2cc3[nH]c(CN4CCC[C@@H]4C)cc3cn2)cc1 [Example 89]
6.28	CC(c1ccncc1)c1ccc(C(=O)Nc2cc3[nH]c(CN4CCC[C@@H]4C)cc3cn2)cc1 (stereo partly drawn) [Example 29, N-(2-[[(2S)-2-methylpyrrolidin-1-yl]methyl]-1H-pyrrolo[3,2-c]pyridin-6-yl)-4-[1-(pyridin-4-yl)ethyl]benzamide]
5.63	C[C@H]1CCCN1Cc1cc2cnc(NC(=O)c3ccc(-n4ccnc4)cn3)cc2[nH]1 [Example 75]
6.49	C[C@H]1CCCN1Cc1cc2cnc(NC(=O)c3ccc4c(=O)[nH]ccc4c3)cc2[nH]1 [Example 61]
6.40	C[C@H]1CCCN1Cc1cc2cnc(NC(=O)c3ccc4cc[nH]c(=O)c4c3)cc2[nH]1 [Example 25]
5.92	C[C@H]1CCCN1Cc1cc2cnc(NC(=O)c3ccc(CN)cc3)cc2[nH]1 [Example 81]
6.58	C[C@H]1CCCN1Cc1cc2cnc(NC(=O)c3ccc4ncccc4c3)cc2[nH]1 [Example 15]
6.05	Cc1nc2cc(C(=O)Nc3cc4[nH]c(CN5CCC[C@@H]5C)cc4cn3)ccc2o1 [Example 3, 2-methyl-N-(2-[[(2S)-2-methylpyrrolidin-1-yl]methyl]-1H-pyrrolo[3,2-c]pyridin-6-yl)-1,3-benzoxazole-5-carboxamide]
6.18	Cc1ccc(-c2ccc(C(=O)Nc3cc4[nH]c(CN5CCC[C@@H]5C)cc4cn3)c(F)c2)nn1 [Example 35]
6.29	C[C@H]1CCCN1Cc1cc2cnc(NC(=O)c3ccc4nc(N)ncc4c3)cc2[nH]1 [Example 59]
